Measured values taken from US11773077B2, “Compounds containing carbon-carbon linker as GPR120 agonists” (PIRAMAL ENTERPRISES LIMITED, priority 2015, dated 2023).

Biological target: T1, GPR120L (Long Isoform) receptor (Homo sapiens, UniProt Q5NUL3)
T1 construct: expressed in transfected cells; similar procedure in HEK 293 cells
T1 sequence (Q5NUL3 1-377 isoform Q5NUL3-1): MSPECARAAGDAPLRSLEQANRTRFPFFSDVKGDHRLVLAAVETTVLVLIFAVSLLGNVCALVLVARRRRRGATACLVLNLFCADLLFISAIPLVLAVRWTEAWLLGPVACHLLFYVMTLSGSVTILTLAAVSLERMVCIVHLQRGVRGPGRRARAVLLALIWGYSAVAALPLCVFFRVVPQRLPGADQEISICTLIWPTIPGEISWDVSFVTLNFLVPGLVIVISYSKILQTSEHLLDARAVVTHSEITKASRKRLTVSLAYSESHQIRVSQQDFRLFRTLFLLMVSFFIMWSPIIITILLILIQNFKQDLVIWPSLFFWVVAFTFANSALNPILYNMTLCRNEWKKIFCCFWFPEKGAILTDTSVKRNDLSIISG
Assay: Beta (β) arrestin 2 Interaction Assay (β-galactosidase enzyme fragment complementation)
Type: cell-based
Conditions: β-arrestin recruitment; CHO-K1 cells stably expressing GPR120L, similar procedure for HEK 293 cells; 2 hours incubation
Method: Beta (β) arrestin 2 Interaction Assay […] was performed using CHO-K1 cells stably expressing the GPR120L (Long Isoform) receptor using β-galactosidase (Beta gal) enzyme fragment complementation assay. The measurement of GPR120 activation upon agonist activation was directly provided by β-arrestin recruitment. One day before the β-arrestin 2 assay, CHO-K1 cells were seeded and incubated overnight at 37° C. in a 5% CO2 humidified atmosphere. Cells were treated with the test compounds in various concentrations ranging from 30 μM to 1 nM and incubated for 2 hours for GPCR (GPR120) activation. Extent of Arrestin recruitment was measured by adding detection reagents for Beta gal complementation assay, and was further incubated for 1 hour. The chemiluminescent signal was detected on Polar Star (BMG Labtech). The dose-response curve was analyzed using Sigma Plot/Graph Pad. The EC50 (concentration of the test compounds where 50% of compounds' maximal activity is observed) values were calculated from the dose-response curve.

| Structure (SMILES) | EC50 |
| --- | --- |
| Cc1ccc(-c2ccc(F)cc2CC(F)(F)c2ccc(CCCC(=O)O)cc2)s1 [Compound 5, 4-(4-(1,1-Difluoro-2-(5-fluoro-2-(5-methylthiophen-2-yl)phenyl)ethyl)phenyl)butanoic acid] | 50 to 500 nM |
| O=C(O)CCCc1ccc(CCc2cc(F)ccc2-c2nc3c(s2)CCCC3)cc1 [Compound 12, 4-(4-(5-fluoro-2-(4,5,6,7-tetrahydrobenzo[d]thiazol-2-yl)phenethyl)phenyl)butanoic acid] | 50 to 500 nM |
| COc1ccc(-c2ccc(F)cc2CC(F)(F)c2ccc(CCCC(=O)O)cc2)cn1 [Compound 20, 4-(4-(1,1-difluoro-2-(5-fluoro-2-(6-methoxypyridin-3-yl)phenyl)ethyl)phenyl)butanoic acid] | 50 to 500 nM |

The remaining lines, values ahead:

| EC50 | Structure (SMILES) |
| --- | --- |
| 5000 to 10000 nM | Cc1ccc(-c2ccc(F)cc2C#Cc2ccc(CCCC(=O)O)nc2)s1 [Compound 3, 4-(5-((5-Fluoro-2-(5-methylthiophen-2-yl)phenyl)ethynyl)pyridin-2-yl)butanoic acid] |
| 500 to 5000 nM | CC1(c2ccc(-c3ccc(F)cc3CC(F)(F)c3ccc(CCCC(=O)O)cc3)s2)CC1 [Compound 6, 4-(4-(1,1-Difluoro-2-(5-fluoro-2-(5-(1-methylcyclopropyl)thiophen-2-yl)phenyl)ethyl)phenyl)butanoic acid] |
| 500 to 5000 nM | N#CC1(c2ccc(-c3ccc(F)cc3C#Cc3ccc(CCCC(=O)O)cc3)s2)CC1 [Compound 11, 4-(4-((2-(5-(1-Cyanocyclopropyl)thiophen-2-yl)-5-fluorophenyl)ethynyl)phenyl)butanoic acid] |
| 50 to 500 nM | CC1(c2ccc(-c3ccc(F)cc3C=Cc3ccc(CCCC(=O)O)cc3)s2)CC1 [Compound 14, 4-(4-(5-fluoro-2-(5-(1-methylcyclopropyl)thiophen-2-yl)styryl)phenyl)butanoic acid] |
| 50 to 500 nM | O=C(O)CCCc1ccc(C#Cc2cc(F)ccc2-c2ccc(C3CC3)s2)cc1 [Compound 18, 4-(4-((2-(5-cyclopropylthiophen-2-yl)-5-fluorophenyl)ethynyl)phenyl)butanoic acid] |
